In brackets after ≈: the same amount, converted by molar mass.
Experiment: Kinetic solubility of the compound in pH 8 Tris buffer at 500 uM after 90 by UV-Vis absorbance analysis
Format: physicochemical
Conditions: read-out: Kinetic_solubility

| Structure (SMILES) | solubility kinetic at 500 µM [µg/mL] |
| --- | --- |
| Cc1csc2ccc(-c3cc(Nc4cnccc4C(=O)N[C@@H]4CCN(C)C4)cc4nccnc34)cc12 | 79 (≈ 160 µM) |
| Cn1cc(CNC(=O)c2ccncc2Nc2cc(-c3ccc4ccn(C)c4c3)c3nccnc3c2)cn1 | 127 (≈ 260 µM) |
| CC(=O)N1CCC(NC(=O)c2ccncc2Nc2cc(-c3ccc4ccn(C)c4c3)c3nccnc3c2)CC1 | 213 (≈ 410 µM) |
| CNC(=O)c1ccncc1Nc1cc(-c2ccc3ccn(C)c3c2)c2nccnc2c1 | 4 (≈ 9.79 µM) |
| CN1CC(NC(=O)c2ccncc2Nc2cc(-c3ccc4ccn(C)c4c3)c3nccnc3c2)CCC1=O (stereo not given) | 253 (≈ 500 µM) |
| CN1CCC(NS(=O)(=O)c2ccccc2Nc2cc(-c3ccc4ccn(C)c4c3)c3nccnc3c2)C1 (stereo not given) | 26 (≈ 50.7 µM) |
| Cn1ccc2ccc(-c3cc(Nc4ccccc4S(=O)(=O)N4CCOCC4)cc4nccnc34)cc21 | 5 (≈ 10 µM) |
| CN1CC(NC(=O)c2ccncc2Nc2cc(-c3ccc4ccn(C)c4c3)c3nccnc3c2)C1 | 170 (≈ 367 µM) |
| CN(C)S(=O)(=O)c1ccccc1Nc1cc(-c2ccc3ccn(C)c3c2)c2nccnc2c1 | 2 (≈ 4.37 µM) |
| CN1CCC(NC(=O)c2ccncc2Nc2cc(-c3ccc4ccn(C)c4c3)c3nccnc3c2)C1 (stereo not given) | 229 (≈ 480 µM) |
| Cn1ccc2ccc(-c3cc(Nc4ccccc4S(=O)(=O)Nc4cncnc4)cc4nccnc34)cc21 | 254 (≈ 500 µM) |
| CN1CCC(NC(=O)c2ccncc2Nc2cc(-c3ccc4sc(N)nc4c3)c3nccnc3c2)C1 (stereo not given) | 241 (≈ 485 µM) |
| CN1CCC(NC(=O)c2ccncc2Nc2cc(-c3ccc4ccn(C)c4c3)c3nccnc3c2)CC1=O (stereo not given) | 48 (≈ 94.9 µM) |
| CN1CCCC(NS(=O)(=O)c2ccccc2Nc2cc(-c3ccc4ccn(C)c4c3)c3nccnc3c2)C1 (stereo not given) | 9 (≈ 17.1 µM) |
| CN1CCC(CNS(=O)(=O)c2ccccc2Nc2cc(-c3ccc4ccn(C)c4c3)c3nccnc3c2)C1 (stereo not given) | 35 (≈ 66.5 µM) |
| CN1CCCC(NC(=O)c2ccncc2Nc2cc(-c3ccc4ccn(C)c4c3)c3nccnc3c2)C1 (stereo not given) | 246 (≈ 500 µM) |
| Cn1ccc2ccc(-c3cc(Nc4cnccc4C(=O)Nc4cncnc4)cc4nccnc34)cc21 | 4 (≈ 8.47 µM) |
| Cn1ccc2ccc(-c3cc(Nc4cnccc4C(=O)NCC4COCCN4)cc4nccnc34)cc21 (stereo not given) | 239 (≈ 484 µM) |
| CN1CCC(NC(=O)c2ccncc2Nc2cc(-c3ccc4ccn(C)c4c3)c3nccnc3c2)CC1 | 246 (≈ 500 µM) |
| CN1CCC(N(C)C(=O)c2ccncc2Nc2cc(-c3ccc4ccn(C)c4c3)c3nccnc3c2)C1 (stereo not given) | 245 (≈ 498 µM) |

| Structure (SMILES) | solubility kinetic at 500 µM [µg/mL] |
| --- | --- |
| CC(=O)N1CCCC(NC(=O)c2ccncc2Nc2cc(-c3ccc4ccn(C)c4c3)c3nccnc3c2)C1 (stereo not given) | 212 (≈ 408 µM) |
| CC(=O)N1CCOC(CNC(=O)c2ccncc2Nc2cc(-c3ccc4ccn(C)c4c3)c3nccnc3c2)C1 (stereo not given) | 268 (≈ 500 µM) |
| Cn1ccc2ccc(-c3cc(Nc4ccccc4S(=O)(=O)NCc4cncnc4)cc4nccnc34)cc21 | 3 (≈ 5.75 µM) |
| CN(Cc1cncnc1)S(=O)(=O)c1ccccc1Nc1cc(-c2ccc3ccn(C)c3c2)c2nccnc2c1 | 3 (≈ 5.6 µM) |
| Cn1cc(CNS(=O)(=O)c2ccccc2Nc2cc(-c3ccc4ccn(C)c4c3)c3nccnc3c2)cn1 | 2 (≈ 3.82 µM) |
| CC(=O)N1CC(CNC(=O)c2ccncc2Nc2cc(-c3ccc4ccn(C)c4c3)c3nccnc3c2)C1 | 252 (≈ 498 µM) |
| Cn1cc(NC(=O)c2ccncc2Nc2cc(-c3ccc4ccn(C)c4c3)c3nccnc3c2)cn1 | 2 (≈ 4.21 µM) |
| CC(=O)N1CC(NC(=O)c2ccncc2Nc2cc(-c3ccc4ccn(C)c4c3)c3nccnc3c2)C1 | 244 (≈ 496 µM) |
| Cc1csc2ccc(-c3cc(Nc4cnccc4C(=O)N[C@H]4CCN(C)C4)cc4nccnc34)cc12 | 80 (≈ 162 µM) |
| Cn1ccc2ccc(-c3cc(Nc4cnccc4C(=O)NCc4cncnc4)cc4nccnc34)cc21 | 233 (≈ 479 µM) |
| Cn1ccc2ccc(-c3cc(Nc4cnccc4C(=O)NC4CCNC(=O)C4)cc4nccnc34)cc21 (stereo not given) | 242 (≈ 492 µM) |
| CN1CCC(CNC(=O)c2ccncc2Nc2cc(-c3ccc4ccn(C)c4c3)c3nccnc3c2)C1 (stereo not given) | 246 (≈ 500 µM) |
| CC(=O)N1CCC(NC(=O)c2ccncc2Nc2cc(-c3ccc4ccn(C)c4c3)c3nccnc3c2)C1 (stereo not given) | 253 (≈ 500 µM) |
| CN(C)C(=O)c1ccncc1Nc1cc(-c2ccc3ccn(C)c3c2)c2nccnc2c1 | 175 (≈ 414 µM) |
| Cn1ccc2ccc(-c3cc(Nc4cnccc4C(N)=O)cc4nccnc34)cc21 | 40 (≈ 101 µM) |
| Cn1ccc2ccc(-c3cc(Nc4ccccc4S(N)(=O)=O)cc4nccnc34)cc21 | 6 (≈ 14 µM) |
| CNS(=O)(=O)c1ccccc1Nc1cc(-c2ccc3ccn(C)c3c2)c2nccnc2c1 | 2 (≈ 4.51 µM) |
| CN1CCC(NC(=O)c2ccncc2Nc2cc(-c3cc(F)c4ccn(C)c4c3)c3nccnc3c2)C1 (stereo not given) | 185 (≈ 373 µM) |
| Cn1ccc2ccc(-c3cc(Nc4ccccc4S(=O)(=O)NCC4CCOCC4)cc4nccnc34)cc21 | 2 (≈ 3.79 µM) |
| Cn1ccc2ccc(-c3cc(Nc4ccccc4S(C)(=O)=O)cc4nccnc34)cc21 | 2 (≈ 4.67 µM) |

— ChEMBL document CHEMBL4330130, “Synthesis of amide and sulfonamide substituted N-aryl 6-aminoquinoxalines as PFKFB3 inhibitors with improved physicochemical properties” (Bioorg Med Chem Lett, 2019)
